# In US7601745B2, “Heterocyclic NF-kB inhibitors” (4SC AG, priority 2004, dated 2009):
# Test system: A549-NF-κB-SEAP reporter cells
# Experiment: Inhibition of NF-κB-induced inflammation ([…] NINA Instant Assay, SEAP reporter)
# Type: cell-based
# Details: NF-κB inflammation assay
# Text: For the determination of anti-inflammatory activity of the compounds the […]® NINA Instant Assay from Cell Culture Service GmBH was used. This assay is based on recombinant A549-NF-κB-SEAP reporter cells preseeded in 96-well flat bottom plates. As the transfected reportergen for SEAP (secreted embryonic alkaline phosphatase) is under transcriptional control of a NF-κB-responsive element, the expression of this reporter is activated upon stimulation with TNF-α. SEAP secretion into the culture supernatant can be detected by the chemiluminescent substrate CSPD®. Test compounds that inhibit the NF-κB activation show reduced SEAP activity and reduced luminescent readout.
# Following 18 h of reactivation at 37° C., 5% CO2 and 90% relative humidity, the cells were incubated with 0.01 up to 100 μM of test compound for 4.5 h before stimulation with 2 ng/ml TNF-α. After stimulation with TNF-α for 22 h endogenous phosphatases were inactivated and CSPD® substrate was supplied for 40 min. SEAP activity then was quantified by measuring luminescence as relative light units (RLU) using a Tecan Ultra reader. Each data point was recorded in quadruplicates and EC50 values were calculated via fitting function and the Microsoft Excel Solver.
row,Compound,Biological activity (inhibition in the NF-κB inflammation assay)
1,N=C(NC(=O)c1csc(N2CCOCC2)n1)Nc1nc2ccccc2[nH]1 [compound 91],+ (“+” stands for 50-80% inhibition)

# Same assay, conditions: compounds of formula (I); TNF-α stimulated reporter cells; test concentration not given
row,Compound,"Biological activity (NF-κB inflammation assay, inhibition)"
1,O=C(c1csc(C2CCN(C(=O)c3ccccc3OC(F)(F)F)CC2)n1)N1CCN(c2nc3ccccc3n2Cc2ccc(F)cc2)CC1 [compound 98],+++ (“+++” stands for 90-100% inhibition)
2,O=C(c1csc(C2CCN(Cc3ccncc3)CC2)n1)N1CCN(c2cccc(C(F)(F)F)c2)CC1 [compound 107],+ (“+” stands for 50-80% inhibition)
3,O=C(c1csc(C2CCN(Cc3ccccc3OC(F)(F)F)CC2)n1)N1CCN(c2cccc(C(F)(F)F)c2)CC1 [compound 109],+ (“+” stands for 50-80% inhibition)
4,O=C(c1csc(C2CCN(C(=O)c3ccccc3OC(F)(F)F)CC2)n1)N(Cc1ccc(Cl)cc1)Cc1ccc(Cl)cc1 [compound 110],+ (“+” stands for 50-80% inhibition)
5,O=C(c1csc(C2CCN(C(=O)c3ccccc3OC(F)(F)F)CC2)n1)N1CCC(n2nnc3ccccc32)CC1 [compound 111],+ (“+” stands for 50-80% inhibition)
6,N#Cc1ccc(N2CCC(c3nc(C(=O)N4CCN(c5cccc(C(F)(F)F)c5)CC4)cs3)CC2)cc1 [compound 112],+ (“+” stands for 50-80% inhibition)
7,O=C(O)N1CCC(c2nc(C(=O)N3CCN(c4cccc(C(F)(F)F)c4)CC3)cs2)CC1 [compound 113],+ (“+” stands for 50-80% inhibition)
8,O=C(c1csc(C2CCN(Cc3cccc(OC(F)(F)F)c3)CC2)n1)N1CCN(c2cccc(C(F)(F)F)c2)CC1 [compound 115],++ (“++” means 80-90%)
9,CS(=O)(=O)c1ccc(N2CCC(c3nc(C(=O)N4CCN(c5cccc(C(F)(F)F)c5)CC4)cs3)CC2)cc1 [compound 117],+ (“+” stands for 50-80% inhibition)
10,O=C(c1csc(C2CCN(c3cc(C(F)(F)F)ccn3)CC2)n1)N1CCN(c2cccc(C(F)(F)F)c2)CC1 [compound 118],+ (“+” stands for 50-80% inhibition)
11,O=C(c1csc(C2CCN(c3ccccc3)CC2)n1)N1CCN(c2cccc(C(F)(F)F)c2)CC1 [compound 119],+ (“+” stands for 50-80% inhibition)
12,COc1nc(OC)nc(N2CCN(C(=O)c3csc(C4CCN(Cc5ccccc5)CC4)n3)CC2)n1 [compound 120],+ (“+” stands for 50-80% inhibition)
13,COc1nc(OC)nc(N2CCN(C(=O)c3csc(C4CCN(Cc5ccc(Br)cc5)CC4)n3)CC2)n1 [compound 121],+ (“+” stands for 50-80% inhibition)
14,O=C(c1csc(C2CCN(c3ccccn3)CC2)n1)N1CCN(c2cccc(C(F)(F)F)c2)CC1 [compound 123],++ (“++” means 80-90%)
15,CSc1nccc(N2CCN(C(=O)c3csc(C4CCN(C(=O)c5ccccc5OC(F)(F)F)CC4)n3)CC2)n1 [compound 124],+ (“+” stands for 50-80% inhibition)
16,COc1nc(OC)nc(N2CCN(C(=O)c3csc(C4CCN(C(=O)Cc5ccc(F)cc5)CC4)n3)CC2)n1 [compound 126],+ (“+” stands for 50-80% inhibition)
17,COc1nc(OC)nc(N2CCN(C(=O)c3csc(C4CCN(C(=O)c5ccccc5OC(F)(F)F)CC4)n3)CC2)n1 [compound 127],+ (“+” stands for 50-80% inhibition)
18,O=C(c1csc(C2CCN(C(=O)c3ccccc3OC(F)(F)F)CC2)n1)N1CCN(c2ncnc3nc[nH]c23)CC1 [compound 129],+ (“+” stands for 50-80% inhibition)
19,COc1cc(N2CCN(C(=O)c3csc(C4CCN(C(=O)c5ccccc5OC(F)(F)F)CC4)n3)CC2)nc(OC)n1 [compound 130],+ (“+” stands for 50-80% inhibition)
20,CC(c1cc2ccccc2[nH]1)N(C)C(=O)c1csc(C2CCN(C(=O)c3ccccc3OC(F)(F)F)CC2)n1 (stereo not shown) [compound 145],+ (“+” stands for 50-80% inhibition)
21,CN(C(=O)c1csc(C2CCN(C(=O)c3ccccc3OC(F)(F)F)CC2)n1)C(CN1CCOCC1)c1ccccc1 (stereo not shown) [compound 147],+ (“+” stands for 50-80% inhibition)
22,O=C(c1csc(C2CCN(C(=O)c3ccccc3OC(F)(F)F)CC2)n1)N(CCO)Cc1ccccc1 [compound 148],++ (“++” means 80-90%)
23,O=C(c1csc(C2CCN(C(=O)c3ccccc3OC(F)(F)F)CC2)n1)N(CCc1ccccc1)Cc1ccccc1 [compound 149],+ (“+” stands for 50-80% inhibition)
24,O=C(c1csc(C2CCN(C(=O)c3ccccc3OC(F)(F)F)CC2)n1)N1CCN(c2cccc(Cl)c2)CC1 [compound 151],+ (“+” stands for 50-80% inhibition)

# Same assay, conditions: compounds of formula (II); TNF-α stimulated reporter cells; test concentration not given
row,Compound,"Biological activity (NF-κB inflammation assay, inhibition)"
1,O=C(NCC1CCN(c2nc(C(=O)N3CCN(c4cccc(C(F)(F)F)c4)CC3)cs2)CC1)c1ccc(C(F)(F)F)c(F)c1 [compound 99],+ (“+” stands for 50-80% inhibition)
2,O=C(CCC1CCCC1)NCC1CCN(c2nc(C(=O)N3CCN(c4cccc(C(F)(F)F)c4)CC3)cs2)CC1 [compound 100],+ (“+” stands for 50-80% inhibition)
3,O=C(NCC1CCN(c2nc(C(=O)N3CCN(c4cccc(C(F)(F)F)c4)CC3)cs2)CC1)c1ccccc1OC(F)(F)F [compound 101],+ (“+” stands for 50-80% inhibition)
4,N#Cc1ccc(C(=O)NCC2CCN(c3nc(C(=O)N4CCN(c5cccc(C(F)(F)F)c5)CC4)cs3)CC2)cc1 [compound 102],+ (“+” stands for 50-80% inhibition)

# Same assay, conditions: compounds of formula (Ia); TNF-α stimulated reporter cells; test concentration not given
row,Compound,"Biological activity (NF-κB inflammation assay, inhibition)"
1,O=C(Nc1cc(F)cc2c1OCCO2)N1CCC(c2nc(C(=O)N3CCN(c4cccc(C(F)(F)F)c4)CC3)cs2)CC1 [compound 74],++ (“++” means 80-90%)
2,O=C(Nc1ccc2c(c1)OCCO2)N1CCC(c2nc(C(=O)N3CCN(c4cccc(C(F)(F)F)c4)CC3)cs2)CC1 [compound 75],++ (“++” means 80-90%)
3,Cc1cc(NC(=O)N2CCC(c3nc(C(=O)N4CCN(c5cccc(C(F)(F)F)c5)CC4)cs3)CC2)c(C(F)(F)F)o1 [compound 76],++ (“++” means 80-90%)
4,O=C(NCCc1cccs1)N1CCC(c2nc(C(=O)N3CCN(c4cccc(C(F)(F)F)c4)CC3)cs2)CC1 [compound 77],+++ (“+++” stands for 90-100% inhibition)
5,CC(C)NC(=O)N1CCC(c2nc(C(=O)N3CCN(c4cccc(C(F)(F)F)c4)CC3)cs2)CC1 [compound 78],+ (“+” stands for 50-80% inhibition)
6,O=C(Nc1ccccc1OC(F)(F)F)N1CCC(c2nc(C(=O)N3CCN(c4cccc(C(F)(F)F)c4)CC3)cs2)CC1 [compound 79],+++ (“+++” stands for 90-100% inhibition)
7,COc1cccc(NC(=O)N2CCC(c3nc(C(=O)N4CCN(c5cccc(C(F)(F)F)c5)CC4)cs3)CC2)c1 [compound 80],+ (“+” stands for 50-80% inhibition)
8,COc1cc(NC(=O)N2CCC(c3nc(C(=O)N4CCN(c5cccc(C(F)(F)F)c5)CC4)cs3)CC2)cc(OC)c1OC [compound 81],++ (“++” means 80-90%)
9,O=C(Nc1ccccc1)N1CCC(c2nc(C(=O)N3CCN(c4cccc(C(F)(F)F)c4)CC3)cs2)CC1 [compound 134],+ (“+” stands for 50-80% inhibition)
10,O=C(Nc1cccc(F)c1)N1CCC(c2nc(C(=O)N3CCN(c4cccc(C(F)(F)F)c4)CC3)cs2)CC1 [compound 142],++ (“++” means 80-90%)
11,O=C(Nc1ccc(F)cc1)N1CCC(c2nc(C(=O)N3CCN(c4cccc(C(F)(F)F)c4)CC3)cs2)CC1 [compound 143],+ (“+” stands for 50-80% inhibition)

# Same assay, conditions: compounds of formula (Ib); TNF-α stimulated reporter cells; test concentration not given
row,Compound,"Biological activity (NF-κB inflammation assay, inhibition)"
1,Cc1sc(C2CCN(C(=O)c3ccccc3OC(F)(F)F)CC2)nc1CC(=O)N1CCN(c2cccc(C(F)(F)F)c2)CC1 [compound 103],++ (“++” means 80-90%)
2,Cc1sc(C2CCN(C(=O)c3ccccc3OC(F)(F)F)CC2)nc1CC(=O)N1CCN(c2cccc(Cl)c2)CC1 [compound 128],+++ (“+++” stands for 90-100% inhibition)

# Same assay, conditions: compounds of formula (Ic); TNF-α stimulated reporter cells; test concentration not given
row,Compound,"Biological activity (NF-κB inflammation assay, inhibition)"
1,CNc1ccc(Cl)cc1C1c2ccccc2CCN1C(=O)c1csc(C2CCN(C(=O)c3ccccc3OC(F)(F)F)CC2)n1 (stereo not shown) [compound 150],++ (“++” means 80-90%)
